In US20090124553A1, “Suppression of inflammation associated with transplantation using an epsilon PKC inhibitor” (priority 2007, published 2009):

Experiments:
cardiac allografts = test: Heterotopic cardiac allograft transplantation in mice: graft beating score, toxicity, body weight; format: in vivo
Experimental: In studies performed in support of the present methods, hearts of FVB mice (H-2^q) were transplanted into C57BL/6 mice (H-2^b) to provide an animal model for allograft transplantation. Following transplantation, an isozyme-specific εPKC inhibitor was administered to the transplant recipients. The particular inhibitor was TAT47-57-εV1-2 (i.e., εV1-2), which is described herein.
The εPKC-specific inhibitor, εV1-2, or the carrier/control peptide, TAT, was administered to the recipient animals using osmotic pumps to provide continuous treatment from day 3 following allograft transplantation until sacrifice on day 30. All animals were given 20 mg/kg/day of cyclosporine A (CyA) to ensure survival.
Male […] (H-2^q) and C57BL/6J (H-2^b) mice, 6-8 weeks old, were purchased from Jackson Laboratory (Bar Harbor, Me.) and housed at the animal facility at Stanford University Medical Center (Stanford, Calif.). The εVB mice were used as allograft donors and the C57BL/6J mice were used as recipients. […]
Allograft recipient mice were monitored daily. Graft viability was assessed by direct abdominal palpation of the heterotopically transplanted hearts and expressed as beating score, assessed by the Stanford cardiac surgery lab graft scoring system (Tanaka, M. et al. (2004) Circulation 110:II194-9).

εPKC = biological target: T1, εPKC (Rattus norvegicus, UniProt P09216); settings: from cited literature; cited from earlier work
T1 sequence (P09216 1-737): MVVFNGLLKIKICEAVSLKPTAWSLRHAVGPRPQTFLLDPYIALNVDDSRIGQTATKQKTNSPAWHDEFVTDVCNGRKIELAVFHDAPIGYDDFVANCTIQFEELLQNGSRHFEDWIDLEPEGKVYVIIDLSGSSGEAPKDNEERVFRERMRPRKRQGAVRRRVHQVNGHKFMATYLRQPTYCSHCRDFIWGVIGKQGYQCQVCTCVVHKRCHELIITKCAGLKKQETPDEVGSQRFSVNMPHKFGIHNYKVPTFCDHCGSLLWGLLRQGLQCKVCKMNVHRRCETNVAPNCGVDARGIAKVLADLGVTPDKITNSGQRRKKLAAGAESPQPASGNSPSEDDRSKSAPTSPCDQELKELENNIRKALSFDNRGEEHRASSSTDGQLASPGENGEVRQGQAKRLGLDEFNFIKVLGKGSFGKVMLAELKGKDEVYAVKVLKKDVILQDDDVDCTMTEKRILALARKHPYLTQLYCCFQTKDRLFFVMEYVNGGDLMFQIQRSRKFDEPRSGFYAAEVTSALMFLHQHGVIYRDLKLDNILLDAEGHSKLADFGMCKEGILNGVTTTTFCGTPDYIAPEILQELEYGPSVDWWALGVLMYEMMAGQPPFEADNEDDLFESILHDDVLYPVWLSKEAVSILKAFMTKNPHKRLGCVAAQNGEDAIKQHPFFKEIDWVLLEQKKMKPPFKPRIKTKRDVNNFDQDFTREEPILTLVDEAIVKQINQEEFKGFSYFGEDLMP

Row | Molecule | toxic effects (cardiac allografts; allograft recipient mice treated day 3-30, compared to TAT-treated group) | body weight (cardiac allografts; allograft recipient mice, Mean±SEM) | function on εPKC (agonist / antagonist) (εPKC)
1 | CC(C)C[C@H](NC(=O)[C@H](CO)NC(=O)[C@@H](NC(=O)[C@H](C)NC(=O)[C@H](CCC(=O)O)NC(=O)[C@@H](N)CSSC[C@H](N)C(=O)N[C@@H](Cc1ccc(O)cc1)C(=O)NCC(=O)N[C@@H](CCCNC(=N)N)C(=O)N[C@@H](CCCCN)C(=O)N[C@@H](CCCCN)C(=O)N[C@@H](CCCNC(=N)N)C(=O)N[C@@H](CCCNC(=N)N)C(=O)N[C@@H](CCC(N)=O)C(=O)N[C@@H](CCCNC(=N)N)C(=O)N[C@@H](CCCNC(=N)N)C(=O)N[C@@H](CCCNC(=N)N)C(=O)O)C(C)C)C(=O)N[C@@H](CCCCN)C(=O)N1CCC[C@H]1C(=O)N[C@H](C(=O)O)[C@@H](C)O [εV1-2] | did not demonstrate toxic effects | 21.7 ± 0.9 g | –
2 | HNAPIGYD | – | – | functioned as a εPKC antatgonist/inhibitor
3 | ψεRACK: peptide HDAPIGYD (εPKC 85-92; SEQ ID NO: 9), εPKC-selective agonist | – | – | functioned as a εPKC-selective agonist
